Assay results reported in PubChem BioAssay AID1645864 (Buhrlage Lab, Dana-Farber Cancer Institute and Novartis …, 2021).
Active and inactive are the calls of the source.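 Rule for the calls: active = maximal inhibition of USP17 at or above 30% in the confirmation dose-response, a value not among the printed readouts; inactive = the rest.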

The compounds below were run against Ubiquitin carboxyl-terminal hydrolase 17-like protein 5 (Homo sapiens) (UniProt A8MUK1) (assay: ubiquitin-specific protease 17 inhibitors, concentration series, biochemical, verification of primary actives (AID 1645864)). Conditions: purified USP17, ubiquitin-rhodamine cleavage fluorescence, 3 h.
Sequence of Ubiquitin carboxyl-terminal hydrolase 17-like protein 5 (Homo sapiens) (A8MUK1 whole entry, looked up): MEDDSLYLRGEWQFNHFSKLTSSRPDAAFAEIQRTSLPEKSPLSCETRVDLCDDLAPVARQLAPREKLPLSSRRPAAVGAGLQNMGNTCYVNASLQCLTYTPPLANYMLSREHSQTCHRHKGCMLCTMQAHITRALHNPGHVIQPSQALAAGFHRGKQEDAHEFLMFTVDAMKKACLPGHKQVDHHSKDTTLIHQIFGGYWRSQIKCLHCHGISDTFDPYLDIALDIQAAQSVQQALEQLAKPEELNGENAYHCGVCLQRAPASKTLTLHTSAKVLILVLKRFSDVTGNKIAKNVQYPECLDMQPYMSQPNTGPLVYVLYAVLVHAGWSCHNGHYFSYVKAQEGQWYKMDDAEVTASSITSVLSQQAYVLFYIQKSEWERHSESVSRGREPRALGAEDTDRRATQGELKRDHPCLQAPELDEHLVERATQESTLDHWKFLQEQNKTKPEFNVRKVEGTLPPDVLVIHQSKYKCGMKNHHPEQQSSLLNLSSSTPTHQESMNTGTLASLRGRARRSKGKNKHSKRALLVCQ
Compound `N#Cc1c(Cl)cccc1Oc1ccc(S(=O)(=O)N2CCC(O)CC2)cc1` has an IC50 of 27.4 µM.
`Cc1ccc(C(=O)NCC(=O)Nc2nc3ccccc3[nH]2)c(C)c1` gave an IC50 of 30.7 µM.
In the case of `COc1ccc(NC(=O)C2CCN(c3cncnc3N(C)C)CC2)cc1OC`, the IC50 is reported as > 50 µM (inactive).
In the case of `Cc1nn(-c2ccc(F)cc2)cc1-c1noc(C(=O)NCc2ccccn2)n1`, the IC50 is reported as 23.5 µM.
In the case of `Cc1nnc(NCc2cccnc2)c2c1nnn2Cc1ccccc1Cl`, the IC50 is reported as 34 µM.
`Cc1cc(C)c2sc(N(CCCn3ccnc3)C(=O)Cc3ccccc3)nc2c1` showed an IC50 of 21.7 µM.
`O=C(/C=C/c1ccc2c(c1)OCO2)Nc1nc2c(s1)COCC2` gave an IC50 of 17.4 µM.
In the case of `COc1cccc(-c2nc3cnccn3c2NCc2ccc3c(c2)OCO3)c1`, the IC50 is reported as > 50 µM (inactive).
`CC(NC(=O)c1ccccc1)c1nc2ccccc2n1CC(=O)Nc1ccc2c(c1)OCO2` (stereo not drawn) gave an IC50 of 2.25 µM.
With `CCOC(=O)c1c(C)oc2nc(CSc3ccccc3)[nH]c(=O)c12` the IC50 was > 50 µM (inactive).
With `Cc1ccc(NC(=O)Cc2nnc3c(-c4nc(C5CC5)no4)cccn23)cc1` the IC50 was 4.85 µM.
In the case of `CSc1ncccc1C(=O)OCc1ccc(Br)cc1`, the IC50 is reported as > 50 µM (inactive).
`CC1=C(c2ccc(C)c(C)c2)S(=O)(=O)NC1=NCC(=O)NCCc1ccc(C)cc1` was tested, and the IC50 was 46.1 µM.
With `COc1ccc(NC(=O)c2ccc(Nc3nnc(C)c4ccccc34)cc2)cc1` the IC50 was > 50 µM (inactive).
`CN(C(=O)CSc1nnc(-c2cc3ccccc3n2C)o1)c1ccccc1` was tested, and the IC50 was > 50 µM (inactive).
With `COc1ccc(Cl)c(NC(=O)C2CC(=O)Nc3cc(-c4ccccc4)nn32)c1` (stereo not drawn) the IC50 was 23.5 µM.
For `Cc1sc2ccn(C)c(=O)c2c1C(=O)NC1CCCC1`, the IC50 was 3.48 µM.
With `Cn1c(CCN2CCCC2)nc2cc(NC(=O)c3ccccc3)ccc21` the IC50 was > 50 µM (inactive).
`COc1ccc(NS(=O)(=O)c2ccc(NC(=O)Nc3ccc(Cl)cc3)cc2)cc1` gave an IC50 of 23.9 µM.
`Cc1c(-c2nn3c(-c4ccco4)nnc3s2)cccc1[N+](=O)[O-]` showed an IC50 of 3 µM.
For `O=C(c1ccnn1-c1ccc2ccc(-c3ccncc3)cn12)N1CCCC1`, the IC50 was > 50 µM (inactive).
In the case of `CC(c1ccccc1)c1nc(-c2ccc(=O)[nH]c2)no1` (stereo not drawn), the IC50 is reported as > 50 µM (inactive).
In the case of `CCOc1ccc(NC(=O)Cn2cnc(S(=O)(=O)N3CCc4ccccc43)c2)cc1`, the IC50 is reported as 23.6 µM.
Work on `CCOc1ccc(Nc2cc(C(=O)NCCc3ccccc3)c3ccccc3n2)cc1` yielded an IC50 of 24.1 µM.
`Cc1cc(=O)n2c3c(c4c(cc13)c(CO)cc(=O)n4C)OC2` showed an IC50 of 9.79 µM.
`Cn1c(=O)/c(=C/c2ccccc2)[nH]c(=O)/c1=C/c1ccccc1` showed an IC50 of 5.8 µM.
Work on `COc1ccc(CN=C2NS(=O)(=O)C(c3ccc(F)cc3)=C2C)cc1OC` yielded an IC50 of 18.8 µM.
`CC(C)c1nc2sc3c(NCc4ccco4)ncnc3c2c2c1CCC2` was tested, and the IC50 was > 50 µM (inactive).
For `COc1ccc(CCNc2c(-c3ccccc3O)nc3cnccn23)cc1OC`, the IC50 was > 50 µM (inactive).
With `CSc1nccc(-c2ccc(F)cc2)c1C#N` the IC50 was 20.7 µM.
`COCCNC(=O)c1ccn(-c2ccc3ccc(-c4ccncc4)cn23)n1` was tested, and the IC50 was > 50 µM (inactive).
Compound `COc1cccc(NC(=O)c2cnc3c(c2)c(=O)n(C)c(=O)n3C)c1` has an IC50 of 2.34 µM.
For `Cc1ccc(N=Cc2sc(O)c3ccccc23)c(C)c1`, the IC50 was > 50 µM (inactive).
With `CCOC(=O)c1nc(Nc2ccc(OC)c(Cl)c2)c2ccccc2n1` the IC50 was 25.3 µM.
`O=C(Nc1nc2c(ccc3ccccc32)s1)c1cccc(Br)c1` was tested, and the IC50 was 2.7 µM.
`Cc1cc(C)cc(NC(=O)CN2C(=O)CC(c3ccccc3)Sc3ccccc32)c1` (stereo not drawn) was tested, and the IC50 was > 50 µM (inactive).
`Cc1sc2ncn3c(=O)n(CC(=O)Nc4ccc(F)c(Cl)c4)nc3c2c1C` gave an IC50 of 2.82 µM.
With `CN1CCN(C(=O)c2ccn(-c3ccc4ccc(-c5cnn(C)c5)cn34)n2)CC1` the IC50 was > 50 µM (inactive).
With `O=C1C=CC(O)C2C1CC13SSC4(CC5C(=O)C=CC(O)C5N4C1=O)C(=O)N23` (stereo not drawn) the IC50 was > 50 µM (inactive).
`O=C(/C=C/c1ccccc1)N1CCN(C2=NS(=O)(=O)c3ccccc32)CC1` was tested, and the IC50 was > 50 µM (inactive).
`O=C(Nc1cc(Cl)cc(Cl)c1)c1csnn1` gave an IC50 of 22.4 µM.
For `O=c1[nH]c2ccccc2cc1CN(Cc1ccco1)S(=O)(=O)c1ccc(F)cc1`, the IC50 was > 50 µM (inactive).
In the case of `c1coc(CNc2nc(Nc3cccc4ccccc34)nc3ccccc23)c1`, the IC50 is reported as > 50 µM (inactive).
Compound `O=c1c(OC2O[C@H](CO)[C@H](O)[C@H](O)[C@H]2O)c(-c2ccc(O)cc2)oc2cc(O)cc(O)c12` (stereo partly drawn) has an IC50 of 46.8 µM.
For `Cc1cc(C)nc(-n2nc(C)c3c2NC(=O)CSC3c2ccc(F)cc2F)n1` (stereo not drawn), the IC50 was 37.5 µM.
`O=C(CCn1c(=O)c2ccccc2n(Cc2cc(=O)n3ccccc3n2)c1=O)NCCc1ccc(Cl)cc1` gave an IC50 of 31.5 µM.
`COC1=CC(=O)c2c(O)c3c(c(C)c2C1=O)C[C@@]1(O)[C@H](O[C@H]2CC[C@H](O[C@H]4C[C@@](C)(O)[C@H](OC(=O)c5c(C)ccc(C)c5O)[C@H](C)O4)[C@@H](C)O2)C(=O)C(C(C)=O)=C(O)[C@@]1(O)C3=O` showed an IC50 of 1.34 µM.
For `COc1ccccc1NS(=O)(=O)c1ccc2oc(SCC(=O)c3ccccc3)nc2c1`, the IC50 was > 50 µM (inactive).
`COc1ccc(C)cc1NC(=O)Cc1csc(NC(=O)c2ccc(=O)[nH]c2)n1` showed an IC50 of 40.5 µM.
With `Cc1ccc(C2c3cccn3CCN2C(=O)Nc2ccccc2)cc1` (stereo not drawn) the IC50 was > 50 µM (inactive).
In the case of `CC(C)(C)c1ccc(C(=O)Nc2ccc(Oc3cccnc3)nc2)cc1`, the IC50 is reported as > 50 µM (inactive).
With `Oc1cc(OCc2cccc(C(F)(F)F)c2)ccc1-c1ccn[nH]1` the IC50 was 21.2 µM.
`O=S(=O)(Cc1nnc(-c2ccccc2C(F)(F)F)o1)c1ccc(Cl)cc1` was tested, and the IC50 was > 50 µM (inactive).
Work on `COc1ccc(NC(=O)CSc2nc(N)c3c4c(sc3n2)COC(C)(C)C4)cc1` yielded an IC50 of 42.5 µM.
`COc1ccc(C2C(C(=O)Nc3ccccc3OC)=C(C)Nc3nnnn32)cc1Br` (stereo not drawn) showed an IC50 of 36.3 µM.
In the case of `COc1ccc(CCC(=O)Nc2ccc3c(c2)Sc2ncccc2C(=O)N3C)cc1`, the IC50 is reported as > 50 µM (inactive).
For `COCCNC(=O)c1cc(-c2cn(-c3ccccn3)c(C)n2)n2ccccc12`, the IC50 was > 50 µM (inactive).
`Cc1cc(C)c(NC(=O)CSc2nc3nccnc3c(=O)n2Cc2ccccc2Cl)c(C)c1` gave an IC50 of 4.02 µM.
In the case of `CCCCCC(=O)N1c2ccccc2NC2=C(C(=O)CC(c3ccc(C(C)(C)C)cc3)C2)C1c1ccncc1` (stereo not drawn), the IC50 is reported as 4.7 µM.
In the case of `COc1ccc(C(=O)Nc2cc(F)c3nc(N4CCOCC4)ccc3c2)c(OC)c1`, the IC50 is reported as 33.9 µM.
For `COc1ccc(C2C(C(=O)C(C)(C)C)N3c4ccccc4C=CC3C23C(=O)c2ccccc2C3=O)c(OC)c1` (stereo not drawn), the IC50 was > 50 µM (inactive).
With `CC(C)(C)c1cc(CCC(=O)Nc2c3c(nc4c2CCC4)CCCC3)cc(C(C)(C)C)c1O` the IC50 was > 50 µM (inactive).
`CC(C(=O)NCc1ccc2c(c1)OCO2)N1CCN(c2ccc(O)cc2)CC1` (stereo not drawn) showed an IC50 of 30.1 µM.
`COc1ccc(CNC(=O)c2ccccc2N2C(=O)N3CCc4c([nH]c5ccccc45)[C@@]3(C)C2=O)cc1` gave an IC50 of 29.8 µM.
With `CC1CC[C@]2(NC1)O[C@H]1C[C@H]3[C@@H]4CC[C@H]5C[C@@H](O[C@@H]6O[C@H](CO)[C@H](O[C@@H]7O[C@H](CO)[C@@H](O)[C@H](O[C@@H]8OC[C@@H](O)[C@H](O)[C@H]8O)[C@H]7O[C@@H]7O[C@H](CO)[C@@H](O)[C@H](O)[C@H]7O)[C@H](O)[C@H]6O)CC[C@]5(C)[C@H]4CC[C@]3(C)[C@H]1[C@@H]2C` (stereo partly drawn) the IC50 was 40 µM.
`O=C(O)c1nccnc1C(=O)N1CCc2ccccc2C1` was tested, and the IC50 was > 50 µM (inactive).
`O=C(Nc1cccc2ccccc12)C1CCCN(S(=O)(=O)Cc2ccccc2)C1` (stereo not drawn) showed an IC50 of 8.53 µM.
In the case of `COCCN(C1CCN(CCc2ccc(Cl)cc2)CC1)S(=O)(=O)c1cccc2cccnc12`, the IC50 is reported as > 50 µM (inactive).
